# Experimental data from patent US20160251342A1, “ALDEHYDE DERIVATIVE OF SUBSTITUTED OXAZOLIDINONES” (WANBURY LTD., priority 2012, published 2016).
# How the values were obtained:
# thrombus formation [1] = experiment: Arterial thrombosis model (rat); format: in vivo, rats (strain: Wistar); details: for ED50: Rattus norvegicus, arterial thrombosis, read-out: ED-50 to inhibit the thrombus formation
# Description: Male fasting rats (strain: Wistar) having a weight 280-320 g were anaesthetized using isoflurane/oxygen. The left carotid artery was exposed (about 2 cm). The formation of an arterial thrombus was induced by mechanical injury to the blood vessel in accordance with the method described by K. Meng et al., Naunyn-Schmiedeberg's Arch. Pharmacol. (1977), 301, 115-119. To this end, the exposed carotid artery was clamped from the blood flow, cooled to -20° C. in a metal trough for 2 minutes and, to standardize the size of the thrombi, simultaneously compressed using a weight of 200 g. […] The proximal clamp was removed, and the wound was closed and re-opened after 2 hours to remove the injured section of the vessel. The section of the vessel was opened longitudinally and the thrombus was removed from the injured section of the vessel. The moist weight of the thrombi was determined immediately. […] Animals were grouped by body weight stratification and randomization (Represented by G1-[…]). The grouping was done one day prior to the experiment initiation.
# thrombus formation [2] = experiment: Arteriovenous shunt model (rat); format: in vivo, rats (strain: Wistar); details: for ED50: Rattus norvegicus, arteriovenous shunt, read-out: ED-50 to inhibit the thrombus formation
# Description: Fasting male rats (strain: Wistar) having a weight of 280-320 g were anaesthetized using a isoflurane/oxygen. Thrombus formation was initiated in an arteriovenous shunt in accordance with the method described by Christopher N. Berry et al., Br. J. Pharmacol. (1994), 113, 1209-1214. To this end, the left jugular vein and the right carotid artery were exposed. The two vessels were connected by an extracorporeal shunt using a 10 cm long Poly Vinyl Chloride tube (.P.V.C.) 9 internal diameter i.d. 0.5 mm), in middle of PVC tubing a 5 cm Scalp vein tube (i.d. 1.5 mm) will be attached which contained a 3 cm long roughened surface nylon thread which will be arranged to form a loop to form a thrombogenic surface. The extracorporeal circulation was maintained for 15 minutes. The shunt was then removed and the nylon thread with the thrombus was weighed immediately. The weight of the nylon thread on its own had been determined before the experiment was started. Before the extracorporeal circulation was set up, The test item [compound formula (B) (Wanxaban)/reference item (Rivaroxaban)/vehicle will be administered to the animals as per routes preferred. Animals were grouped by body weight stratification and randomization (Represented by G1-[…]). The grouping was done one day prior to the experiment initiation.
# [3] = In vitro stability in mouse plasma (LC-MS); format: in vitro ADME; details: for % Parent remaining (Mouse): rivaroxaban itself incubated
# Description: The final concentration of the test compound in the assay is 5 micromolar. […] C. The 100 microlitres of aliquot at time point was removed and diluted with ice cold acetonitrile containing IS (200 µL) to stop the reactions. Samples are centrifuged at 10,000 RPM for 5 minutes to precipitate proteins. Supernatants are transferred to micro centrifuge tubes and stored at −20° C. for analysis of LC/MS/MS. The percent parent remaining of the test substance is calculated as ratio of peak area at each time point to peak area ratio at zero min, multiplied by 100.
# API 4000, ESI Agilent 1100 column: Gemini Nx 100 mm×4.6 mm 5.μ; column temperature: 30° C.; eluent A: 0.1% formic acid in water, eluent B: acetonitrile; gradient: 0-2.5 min 95% A, 5% B; 2.5-2.6 min 5% A, 95% B; 2.6-4.2 min 95% A, 5% B; flow rate: 0.8 ml/min; ESI. Q1:464.098, Q3:144.255
# [4] = In vitro liver microsomal stability assay, human; format: in vitro ADME; details: human microsomes; for % Parent remaning (Human): rivaroxaban itself incubated
# Description: (§1) Liver microsomal stability assays are conducted at 1 mg per mL liver microsome protein with an NADPH in phosphate buffer (100 mM, pH 7.4). Test compounds (compound of formula B of the invention) are prepared as solutions in 20% methanol-water and added to the assay mixture (final assay concentration 1 μM) and incubated at 37° C. Aliquots (100 .μ.L) are taken out at times 0, 15, and 30 minutes, and diluted with ice cold acetonitrile containing IS (200 µL) to stop the reactions. Samples are centrifuged at 10,000 RPM for 5 minutes to precipitate proteins. Supernatants are transferred to micro centrifuge tubes and stored at −20° C. for analysis of LC/MS/MS. The percent parent remaining of the test substance is calculated as Ratio of peak area at each time point to peak area ratio at zero min, multiplied by 100. The compound formula (B) is converted to Rivaroxaban in microsomal assay.
# [5] = In vitro liver microsomal stability assay, mouse; format: in vitro ADME; details: mouse microsomes
# Description: as §1
# [6] = In vitro liver microsomal stability assay, rat; format: in vitro ADME; details: rat microsomes; for % Parent remaining (rat): rivaroxaban itself incubated
# Description: as §1
# thrombus formation [7] = experiment: Venous thrombosis model (rat); format: in vivo, rats (strain: Wistar); details: for ED50: Rattus norvegicus, venous thrombosis, per oral, read-out: ED-50 to inhibit the thrombus formation; for Mean thrombus weight (mg) (±SEM): per oral 120 minutes before induction, vehicle 4.36 ± 0.58
# Description: Male fasting rats (strain: Wistar) having a weight 280-320 g were anaesthetized using isoflurane/oxygen. The left jugular vein was exposed (about 2 cm). The formation of a venous thrombus was induced by mechanical injury to the blood vessel in accordance with the method described by K. Meng, et al., Naunyn-Schmiedeberg's Arch. Pharmacol. (1977), 301, 115-119. To this end, the jugular vein was clamped from the blood flow, cooled to -12° C. in a metal trough for 2 minutes and, to standardize the size of the thrombi, simultaneously compressed using a weight of 200 g. The blood flow was re-opened and the wound was closed. After 4 hours, the wound was re-opened to remove the thrombi from the injured sections of the vessel. The moist weight of the thrombi was determined immediately. […] Animals were grouped by body weight stratification and randomization (Represented by G12-[…]). The grouping was done one day prior to the experiment initiation.
# [8] = intravenous 5 minutes before induction, Dose 0.5, vehicle 2.08 ± 0.47
# [9] = intravenous 5 minutes before induction, Dose 1, vehicle 2.08 ± 0.47
# [10] = intravenous 5 minutes before induction, Dose 2, vehicle 2.08 ± 0.47
# [11] = intravenous 5 minutes before induction, Dose 3, vehicle 2.08 ± 0.47
# [12] = intravenous 5 minutes before induction, Dose 4, vehicle 2.08 ± 0.47
# [13] = per oral 120 minutes before induction, Dose 2.5, vehicle 1.70 ± 0.39
# [14] = per oral 120 minutes before induction, Dose 5.0, vehicle 1.70 ± 0.39
# [15] = per oral 120 minutes before induction, Dose 10, vehicle 1.70 ± 0.39
# [16] = per oral 120 minutes before induction, Dose 15, vehicle 1.70 ± 0.39
# [17] = per oral 120 minutes before induction, Dose 20, vehicle 1.70 ± 0.39
# [18] = intravenous, Dose 0.5, vehicle 27.26 ± 1.23
# [19] = intravenous, Dose 1, vehicle 27.26 ± 1.23
# [20] = intravenous, Dose 2, vehicle 27.26 ± 1.23
# [21] = intravenous, Dose 3, vehicle 27.26 ± 1.23
# [22] = intravenous, Dose 4, vehicle 27.26 ± 1.23
# [23] = per oral, Dose 2.5, vehicle 26.95 ± 1.23
# [24] = per oral, Dose 5, vehicle 26.95 ± 1.23
# [25] = per oral, Dose 10, vehicle 26.95 ± 1.23
# [26] = per oral, Dose 15, vehicle 26.95 ± 1.23
# [27] = per oral, Dose 20, vehicle 26.95 ± 1.23
compound,measurement,setting,value
"O=C(NC[C@H]1CN(c2ccc(N3CCOCC3=O)cc2)C(=O)O1)c1ccc(Cl)s1 [Rivaroxaban, 5-chloro-N-({(5S)-2-oxo-3-[4-(3-oxomorpholin-4-yl)phenyl]-1,3-oxazolidin-5-yl}methyl)thiophene-2-carboxamide, reference compound]",ED50,thrombus formation [1]; intravenous,2.5 mg/kg
same,ED50,thrombus formation [1]; per oral,24.2 mg/kg
same,Mean thrombus weight (mg) (±SEM),thrombus formation [1]; [8],1.10 ± 0.32 mg
same,Mean thrombus weight (mg) (±SEM),thrombus formation [1]; [9],0.62 ± 0.08 mg
same,Mean thrombus weight (mg) (±SEM),thrombus formation [1]; [10],0.70 ± 0.11 mg
same,Mean thrombus weight (mg) (±SEM),thrombus formation [1]; [11],0.41 ± 0.05 mg
same,Mean thrombus weight (mg) (±SEM),thrombus formation [1]; [12],0.34 ± 0.08 mg
same,Mean thrombus weight (mg) (±SEM),thrombus formation [1]; [13],1.71 ± 0.45 mg
same,Mean thrombus weight (mg) (±SEM),thrombus formation [1]; [14],1.78 ± 0.66 mg
same,Mean thrombus weight (mg) (±SEM),thrombus formation [1]; [15],0.84 ± 0.23 mg
same,Mean thrombus weight (mg) (±SEM),thrombus formation [1]; [16],0.78 ± 0.14 mg
same,Mean thrombus weight (mg) (±SEM),thrombus formation [1]; [17],0.65 ± 0.10 mg
same,ED50,thrombus formation [2]; intravenous,1.7 mg/kg
same,ED50,thrombus formation [2]; per oral,26.2 mg/kg
same,Mean thrombus weight (mg) (±SEM),thrombus formation [2]; [18],13.95 ± 1.49 mg
same,Mean thrombus weight (mg) (±SEM),thrombus formation [2]; [19],10.84 ± 1.16 mg
same,Mean thrombus weight (mg) (±SEM),thrombus formation [2]; [20],10.83 ± 1.11 mg
same,Mean thrombus weight (mg) (±SEM),thrombus formation [2]; [21],6.92 ± 0.57 mg
same,Mean thrombus weight (mg) (±SEM),thrombus formation [2]; [22],7.56 ± 0.59 mg
same,Mean thrombus weight (mg) (±SEM),thrombus formation [2]; [23],19.2 ± 0.2 mg
same,Mean thrombus weight (mg) (±SEM),thrombus formation [2]; [24],17.26 ± 0.75 mg
same,Mean thrombus weight (mg) (±SEM),thrombus formation [2]; [25],15.41 ± 1.25 mg
same,Mean thrombus weight (mg) (±SEM),thrombus formation [2]; [26],16.9 ± 0.49 mg
same,Mean thrombus weight (mg) (±SEM),thrombus formation [2]; [27],9.7 ± 1.34 mg
same,"Conversion summary: unchanged, stable in plasma",[3]; rivaroxaban itself,"unchanged,"
same,% Parent remaining (Mouse),[3]; 0 min,100%
same,% Parent remaining (Mouse),[3]; 30 min,100%
same,% Parent remaining (Mouse),[3]; 60 min,100%
same,% Parent remaning (Human),[4]; 0 min,100%
same,% Parent remaning (Human),[4]; 15 min,0.01%
same,% Parent remaning (Human),[4]; 30 min,0.01%
same,Observation: metabolism,[5]; rivaroxaban itself,High
same,Observation: metabolism,[6]; rivaroxaban itself,High
same,% Parent remaining (rat),[6]; 0 min,100%
same,% Parent remaining (rat),[6]; 15 min,0.01%
same,% Parent remaining (rat),[6]; 30 min,0.02%
same,ED50,thrombus formation [7],12.3 mg/kg
same,Mean thrombus weight (mg) (±SEM),thrombus formation [7]; Dose 2.5,2.93 ± 0.50 mg
same,Mean thrombus weight (mg) (±SEM),thrombus formation [7]; Dose 5.0,2.06 ± 0.73 mg
same,Mean thrombus weight (mg) (±SEM),thrombus formation [7]; Dose 10,2.06 ± 0.53 mg
same,Mean thrombus weight (mg) (±SEM),thrombus formation [7]; Dose 15,1.43 ± 0.46 mg
same,Mean thrombus weight (mg) (±SEM),thrombus formation [7]; Dose 20,1.66 ± 0.74 mg
"O=CN(C[C@H]1CN(c2ccc(N3CCOCC3=O)cc2)C(=O)O1)C(=O)c1ccc(Cl)s1 [compound formula (B), 5-chloro-N-formyl-N-({(5S)-2-oxo-3-[4-(3-oxomorpholin-4-yl)phenyl]-1,3-oxazolidin-5-yl}methyl)thiophene-2-carboxamide]",ED50,thrombus formation [1]; intravenous,0.5 mg/kg
same,ED50,thrombus formation [1]; per oral,4 mg/kg
same,Mean thrombus weight (mg) (±SEM),thrombus formation [1]; [8],1.32 ± 0.17 mg
same,Mean thrombus weight (mg) (±SEM),thrombus formation [1]; [9],0.60 ± 0.09 mg
same,Mean thrombus weight (mg) (±SEM),thrombus formation [1]; [10],0.61 ± 0.09 mg
same,Mean thrombus weight (mg) (±SEM),thrombus formation [1]; [11],0.47 ± 0.05 mg
same,Mean thrombus weight (mg) (±SEM),thrombus formation [1]; [12],0.36 ± 0.03 mg
same,Mean thrombus weight (mg) (±SEM),thrombus formation [1]; [13],1.15 ± 0.13 mg
same,Mean thrombus weight (mg) (±SEM),thrombus formation [1]; [14],0.71 ± 0.04 mg
same,Mean thrombus weight (mg) (±SEM),thrombus formation [1]; [15],0.78 ± 0.14 mg
same,Mean thrombus weight (mg) (±SEM),thrombus formation [1]; [16],0.58 ± 0.11 mg
same,Mean thrombus weight (mg) (±SEM),thrombus formation [1]; [17],0.44 ± 0.04 mg
same,ED50,thrombus formation [2]; intravenous,1 mg/kg
same,ED50,thrombus formation [2]; per oral,22.8 mg/kg
same,Mean thrombus weight (mg) (±SEM),thrombus formation [2]; [18],18.7 ± 1.22 mg
same,Mean thrombus weight (mg) (±SEM),thrombus formation [2]; [19],13.99 ± 2 mg
same,Mean thrombus weight (mg) (±SEM),thrombus formation [2]; [20],8.45 ± 0.75 mg
same,Mean thrombus weight (mg) (±SEM),thrombus formation [2]; [21],5.83 ± 0.31 mg
same,Mean thrombus weight (mg) (±SEM),thrombus formation [2]; [22],4.81 ± 0.31 mg
same,Mean thrombus weight (mg) (±SEM),thrombus formation [2]; [23],3.81 ± 1.55 mg
same,Mean thrombus weight (mg) (±SEM),thrombus formation [2]; [24],1.60 ± 0.10 mg
same,Mean thrombus weight (mg) (±SEM),thrombus formation [2]; [25],0.66 ± 0.09 mg
same,Mean thrombus weight (mg) (±SEM),thrombus formation [2]; [26],0.53 ± 0.18 mg
same,Mean thrombus weight (mg) (±SEM),thrombus formation [2]; [27],0.62 ± 0.16 mg
same,Amount of test product detected (conversion to rivaroxaban from zero min),[3],min. Neglible
same,Amount of test product detected (metabolised to rivaroxaban from zero min),[4],Neglible
same,Amount of test product detected (metabolised to rivaroxaban from zero min),[5],min. Neglible
same,Amount of test product detected (metabolised to rivaroxaban from zero min),[6],min. Neglible
same,ED50,thrombus formation [7],1.9 mg/kg
same,Mean thrombus weight (mg) (±SEM),thrombus formation [7]; Dose 2.5,3.81 ± 1.55 mg
same,Mean thrombus weight (mg) (±SEM),thrombus formation [7]; Dose 5.0,1.60 ± 0.10 mg
same,Mean thrombus weight (mg) (±SEM),thrombus formation [7]; Dose 10,0.66 ± 0.09 mg
same,Mean thrombus weight (mg) (±SEM),thrombus formation [7]; Dose 15,0.53 ± 0.18 mg
same,Mean thrombus weight (mg) (±SEM),thrombus formation [7]; Dose 20,0.62 ± 0.16 mg
